Source: the METLIN SMRT retention time set (Domingo-Almenara et al. 2019)

Test: gradient 5% acetonitrile 3 min, to 50% in 2 min, to 85% in 15 min, held 3 min, 100 µL/min
Conditions: column: Zorbax Extend-C18 2.1 x 50 mm; eluents: water / acetonitrile, 0.1% formic acid
In short: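 A Zorbax Extend-C18 column (2.1 × 50 mm, 1.8 μm) run at 100 μL/min with water and acetonitrile, both containing 0.1% formic acid, separated mixtures of ~100 pure standards. The HPLC was coupled to a quadrupole time-of-flight mass spectrometer operated in positive and negative ionization mode, with dead and dwell volumes of 40 μL and 900 μL. Each retention time was taken from a computationally picked adduct peak that was then manually inspected.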

RP-LC retention time [s]	Structure (SMILES)
932	O=C(NCc1ccc(-c2noc(-c3cc(F)ccc3F)n2)s1)C1CC1
595	Cc1cc(Nc2ccc(NC(=O)Cc3cccs3)cc2)nc(N2CCCC2)n1
942	Cc1nc(-c2ccc(OC3CCN(C(=O)c4nn(C)c5ccccc45)C3)cc2)no1 (stereo not drawn)
1140	Cc1ccc(Oc2nccnc2SCC(=O)Nc2ccc(C)c(C)c2)cc1
1040	COc1ccc(-c2nc(Cc3noc(-c4cccc(F)c4)n3)c(C)o2)cc1
908	Cc1ccccc1Oc1nccn2c(=O)n(CC(=O)Nc3cc(F)ccc3F)nc12
788	COc1cccc(NC(=O)Cn2ccc3ccc(-c4nnc(C)o4)cc32)c1
1090	CCN1C(=O)c2cc(S(=O)(=O)Nc3ccc(F)c(Cl)c3)ccc2Oc2cccnc21
711	Cc1ccc(-c2ccc(=O)n(CCc3nc(-c4ccc5c(c4)OCO5)no3)n2)cc1
1120	Cc1ccccc1Cn1nc(-c2nc(C(C)(C)C)no2)ccc1=O
728	Cc1cc(C(=O)NCCCC(=O)Nc2cccc3cccnc23)c(C)o1
686	COc1ccc(CSc2nccc3c2ccn3CC(=O)NCc2ccco2)cc1
1220	O=C(Nc1ccccc1F)c1c(O)c2cccnc2n(-c2ccc(F)cc2)c1=O
985	CCOc1ccc(-c2csc(C)n2)cc1S(=O)(=O)Nc1ccc(F)cc1
637	COc1ccc(NC(=O)CN2CCc3[nH]c4c(F)c(Cl)ccc4c(=O)c3C2)c(OC)c1
879	CS(=O)(=O)Nc1ccc(-c2noc(CN3C(=O)COc4ccc(Cl)cc43)n2)cc1

RP-LC retention time [s]	Structure (SMILES)
596	O=C(Cc1nc(-c2ccccn2)n[nH]1)Nc1ccccc1
677	Cc1nnc2c(=O)n(CC(=O)NC(C)c3ccc(F)cc3)c3cccnc3n12 (stereo not drawn)
742	CCN1c2cc(F)ccc2C(=O)NC12CCN(C(=O)c1ccccc1)CC2
648	Cc1ccc(-c2n[nH]c3c2CN(C(=O)c2cnn4cccnc24)CC3)cc1
608	O=C(Cn1ncc2c(N3CCN(c4ccccn4)CC3)ncnc21)Nc1ccccc1Br
819	CC(C)c1cc(C(=O)NC2CC2)nc2cc(-c3ccccn3)nn12
742	Cc1nnc(N2CCCC(C(=O)NCc3cccs3)C2)c2nn(-c3ccc(Cl)cc3)c(C)c12 (stereo not drawn)
813	CCN1C(=O)c2cc(C(=O)Nc3ccc(F)cc3)nn2CC1(C)C(=O)NC1CCCC1 (stereo not drawn)
817	CCc1cccc(C)c1Nc1c(-c2ccc(N3CCOCC3)cc2)nc2cnccn12
700	CCNC(=O)CCc1nc2ccccc2n(CC(=O)NCc2ccc(OC)cc2)c1=O
1120	Cc1ccc(-c2csc(NC(=O)c3nc4ccccc4s3)n2)o1
972	Cc1ccc(-c2nc(Cn3cccc3C(=O)N3CCCC3)no2)cc1
726	CCC(C)C(NC(=O)c1cccc(OC)c1)C(=O)Nc1nc2ccccc2[nH]1 (stereo not drawn)
921	Cc1nc(-c2ccc(N3CCN(C(=O)c4cccc(F)c4)CC3)nc2)sc1C
1070	COc1ccc(-c2ncc3c(n2)CCN(S(=O)(=O)c2ccccc2C)C3)cc1
808	COC(=O)c1c(NCc2cc(F)cc(F)c2)c2cccc(Cl)c2[nH]c1=O

Continued, compound first:

Structure (SMILES)	RP-LC retention time [s]
COc1ccc(CCNc2nc(-c3ccc(OC)c(OC)c3)cs2)cc1OC	728
CN(C)C(=O)c1ccc2c(c1)N(CC(=O)Nc1ccc3c(c1)OCCO3)C(=O)C1CCCCN21 (stereo not drawn)	750
O=C(CCc1ccccc1)NCCN1CCN(c2ccc(Cl)cc2)CC1	619
O=S(=O)(c1ccc(Cl)cc1)N1CCC2(CC1)NCCN=C2NCc1ccc(F)cc1	744
CN1C2CC(OC(=O)[C@H](CO)c3ccccc3)CC1C1OC12 (stereo partly drawn)	581
Cc1cc(C)c(NC(=O)C23CCC(C)(C(=O)O2)C3(C)C)c([N+](=O)[O-])c1 (stereo not drawn)	884
COCCN1C(=O)c2cccn2CC1CNC(=O)CC(C)C (stereo not drawn)	639
CCc1nc2cc(-c3noc(-c4ccc(C)cc4)n3)ccc2o1	1270
CCn1ccc2cc(S(=O)(=O)N3CCC(C(=O)N4CCN(c5ncccn5)CC4)CC3)ccc21	880
O=C(NCc1c(-c2ccc(Cl)cc2)nc2n1CCS2)c1ccco1	668
CCCCN1CCc2nc(N3CCN(c4ccccc4F)CC3)ncc2C1	715
Cc1csc(-c2cc(S(=O)(=O)NCCC3=CCCCC3)cn2CC(=O)N2CCCC2)n1	1030
CCC(=O)N1CCc2cc(C(=O)NC(C)C)ccc21	685
CCn1c(=O)sc2cc(S(=O)(=O)N3CCC(C(=O)NCCC4=CCCCC4)CC3)ccc21	958
O=C(CN1C(=O)COc2ccc(C(=O)N3CCCC3)cc21)N1CCN(c2ccccn2)CC1	583
CN1CCC(NC(=O)c2ccc3c(c2)N(S(=O)(=O)c2ccccc2)CC3)CC1	610
O=C(N[C@@H]1CN(Cc2ccccc2)C[C@H]1CO)C1(c2ccccc2)CC1	652
CC1Cc2ccccc2N1C(=O)c1ccc(=O)n(CCC(=O)N2CCN(C3CCCCC3)CC2)n1 (stereo not drawn)	654
CCc1nnc(NC(=O)C2CCCN(c3ncnc4c3nc3n4CCCCC3)C2)s1 (stereo not drawn)	724

Structure (SMILES)	RP-LC retention time [s]
Cc1ccc(Nc2c(-c3ccc(N(C)C)cc3)nc3c(C)cccn23)cc1	805
Cc1noc(C)c1Cc1ccc(C(=O)N2CCCCCCN(C)C(=O)[C@@H]3CCC[C@@H]32)o1	814
Cc1ccc(Nc2c(-c3ccc(N(C)C)cc3)nc3ccc(Cl)cn23)cc1	818
CCCN(CC1CCOC1)C(=O)Nc1ccccc1Br (stereo not drawn)	832
CC1CCN(C(=O)c2ccc3c(c2)CCCN3S(C)(=O)=O)CC1	836
CSc1ccc(CNC(=O)c2cn3cc(Cl)ccc3n2)cc1	895
CC1CCCCN1S(=O)(=O)c1ccc2nc(N3CCN(c4ccc(F)cc4)CC3)ccc2c1 (stereo not drawn)	1100
O=[N+]([O-])c1ccc(-c2cn(-c3ccc(Cl)cc3)cn2)cc1	933
COc1ccc(NC(=O)N2CC(N(Cc3ccncc3)CC(C)C)C2)cc1OC	622
CCCCC(=O)NC1(C(F)(F)F)C(=O)N(Cc2ccccc2)C(C)=C1C(=O)OC (stereo not drawn)	989
O=C1Cc2cc(NC(=O)NC(c3ccccc3)c3ccccc3)ccc2N1	706
COc1ccc(CN2CCC([C@@H]3CNC[C@H]3CO)CC2)cc1Cn1ccnc1	572
CC1CN([C@H]2C[C@@H](N=[N+]=[N-])[C@@H](CO)O2)C(=O)NC1=O (stereo partly drawn)	644
Cn1nc(-c2nc(C3CC3)no2)c2c1CCN(C(=O)Nc1ccccc1)C2	809
COc1ccc2nc(CN3CCN(S(=O)(=O)N(C)C)CC3)[nH]c2c1	556
Cc1cccc(NC(=O)N2CCCC2C(=O)NC2CC2)c1 (stereo not drawn)	655
CC(=O)Nc1ccc(CCc2nc3ccc(C(=O)NCCc4c[nH]c5ccccc45)cc3[nH]2)cc1	644
COC(=O)C1=CN(c2ccccc2OC)c2ccccc2S1(=O)=O	824
Cc1ccc(C(=O)NCc2ccc(N3CCCC3)nc2)s1	601

Structure (SMILES)	RP-LC retention time [s]
COc1cc(OC)cc(C(=O)N2CCC3(C2)C(=O)N(C)c2ccc(OC)cc23)c1 (stereo not drawn)	798
CN(CCc1noc(-c2ccc(C(=O)N3CCCCC3)cc2)n1)C(=O)c1ccc2c(c1)OCO2	779
CCCN(CC(=O)N(Cc1ccco1)CC1CCCO1)C(=O)Cc1ccc(F)cc1 (stereo not drawn)	872
Cc1cc(C)c2c(N3CCOCC3)nc(C(=O)N3CCC(C)CC3)nc2n1	626
CCn1cc(S(=O)(=O)N2CCCC2c2nncn2Cc2ccncc2)cn1 (stereo not drawn)	553
CCOCCCNC(=O)C1CCN(c2ncnc3c2oc2ccccc23)CC1	633
Cc1ccc2oc(N3CCN(C(=O)c4ccc(-c5noc(C6CC6)n5)cc4)CC3)nc2n1	670
COc1ccc(-c2nnc(SCc3ccc(Br)cc3)o2)cc1	1170
O=C(CSc1nnc(NC(=O)C2CCCCC2)s1)Nc1nccs1	747
CCOC(=O)c1noc2ncnc(N(CCN(C)C)Cc3ccccc3)c12	656
CCc1ccc(N2C(=O)c3c(C(=O)OC)ncn3CC2(C)C(=O)NC2CCCC2)cc1 (stereo not drawn)	615
Cc1ccc(CNC(=O)C2(C)CN(S(C)(=O)=O)CC(=O)N2c2cc(C)ccc2C)cc1 (stereo not drawn)	898
CCC(C)(C)C(=O)N1CCCC1Cc1noc(-c2cccnc2)n1 (stereo not drawn)	839
Cc1c(Cl)cccc1N1C(=O)CN(S(C)(=O)=O)CC1(C)C(=O)NC1CCCCCCC1 (stereo not drawn)	1010
COc1cccc(NC(=O)C2CCN(c3cc(N4CCCC4)ncn3)CC2)c1	652
Cn1ncn2cc(S(=O)(=O)N3CCN(c4ccccn4)CC3)cc2c1=O	578
O=C(COc1ccccc1Cl)N1CCN(c2cc(-c3ccccc3)ncn2)CC1	628
O=C1COc2cc(S(=O)(=O)N3CCCC3C(=O)NCCN3CCCCCC3)c(Cl)cc2N1 (stereo not drawn)	587
